Earlier results on 1 substance are cited in US12246097B2, “Nanoparticle vaccine adjuvant and methods of use thereof” (Massachusetts Institute of Technology, priority 2018, dated 2025).

For the data set, the system named is chick embryo eggs. The conditions noted are these: as measured by lethal dose in chick embryo eggs.

On to 4′-monophosporyl lipid A [MPLA], for which the “toxicity reduced by a factor (relative to LPS)” value was “more than 1000”.
